# Biological target: T1, beta amyloid (Aβ) plaques in the brain (Homo sapiens, UniProt P05067)
# T1 construct: from tissue; host or cells: brain of living subjects (cortex and striatum), in vivo PET
# Assay: GE067-026 blinded image evaluation (BIE) of amyloid PET images, separate cortical and striatal assessment
# Assay type: in vivo
# Details: for Subjects classified C+S+ by BIE assessment / Subjects classified C+S− by BIE assessment / Subjects classified C−S+ by BIE assessment / Subjects classified C−S− by BIE assessment: GE067-026 data set, N = 106; for BIE assessments C+S+ against striatal plaque count by histopathology / BIE assessments C+S− against striatal plaque count by histopathology / BIE assessments C−S− against striatal plaque count by histopathology: N = 108 subjects and 5 readers
# Description: The data presented explore the use of separate cortical and striatal assessments to aid the Thal (amyloid) phase assignation to in life subjects. The data sets used are from a Flutemetamol (18F) Injection Phase III clinical trial. In this trial PET image assessment was compared to histopathological assessment of amyloid pathology from autopsy. The available data for a preliminary analysis of amyloidosis staging using separate cortical and striatal assessments comes from two sources: • (1) The blinded image evaluations (BIEs) from the GE067-026 clinical trial (NCT02090855) • (2) Provisional SUVR determinations in post-hoc analyses of the GE067-026 data During the BIEs for the above trial, 5 independent readers assessed each of 106 amyloid PET images as abnormal or normal. These dichotomous assessments formed the primary analysis for the trial. However, the individual cortical and striatal assessments were recorded and were re-analysed to estimate the cortical and striatal status separately. For each subject, each of the five readers rated 4 cortical regions and 1 striatal region as Aβ positive or Aβ negative.^1 ^1 All regions assessed are bilateral. Readers assessed images bilaterally—left and right hemispheres—but recoded only one result for each of the 5 bilateral regions. Applying the same general principle that if any of the 4 cortical regions are positive this confers cortical positivity, separate cortical and striatal assessments were determined for each case.
# T1 sequence (P05067 672-713 limits assumed): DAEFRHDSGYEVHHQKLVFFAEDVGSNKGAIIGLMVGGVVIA
compound,measurement,setting,value
CNc1ccc(-c2nc3ccc(O)cc3s2)cc1F [Flutemetamol],Share of C+S− cases that were phase 3,BIE majority assessment,75%
same,Cases identified as C+S− by Majority assessment,"BIE majority, all Thal phases",6
same,Subjects classified C+S+ by BIE assessment,Reader A,73
same,Subjects classified C+S− by BIE assessment,Reader A,5
same,Subjects classified C−S+ by BIE assessment,Reader A,1
same,Subjects classified C−S− by BIE assessment,Reader A,28
same,Subjects classified C+S+ by BIE assessment,Reader B,68
same,Subjects classified C+S− by BIE assessment,Reader B,4
same,Subjects classified C−S+ by BIE assessment,Reader B,0
same,Subjects classified C−S− by BIE assessment,Reader B,35
same,Subjects classified C+S+ by BIE assessment,Reader C,64
same,Subjects classified C+S− by BIE assessment,Reader C,6
same,Subjects classified C−S+ by BIE assessment,Reader C,0
same,Subjects classified C−S− by BIE assessment,Reader C,37
same,Subjects classified C+S+ by BIE assessment,Reader D,35
same,Subjects classified C+S− by BIE assessment,Reader D,38
same,Subjects classified C−S+ by BIE assessment,Reader D,0
same,Subjects classified C−S− by BIE assessment,Reader D,34
same,Subjects classified C+S+ by BIE assessment,Reader E,70
same,Subjects classified C+S− by BIE assessment,Reader E,5
same,Subjects classified C−S+ by BIE assessment,Reader E,2
same,Subjects classified C−S− by BIE assessment,Reader E,30
same,BIE assessments C+S+ against striatal plaque count by histopathology,STR Plaques Frequent,289
same,BIE assessments C+S− against striatal plaque count by histopathology,STR Plaques Frequent,37
same,BIE assessments C−S− against striatal plaque count by histopathology,STR Plaques Frequent,23
same,BIE assessments C+S+ against striatal plaque count by histopathology,STR Plaques Moderate,18
same,BIE assessments C+S− against striatal plaque count by histopathology,STR Plaques Moderate,17
same,BIE assessments C−S− against striatal plaque count by histopathology,STR Plaques Moderate,24
same,BIE assessments C+S+ against striatal plaque count by histopathology,STR Plaques None,0
same,BIE assessments C+S− against striatal plaque count by histopathology,STR Plaques None,1
same,BIE assessments C−S− against striatal plaque count by histopathology,STR Plaques None,98
same,BIE assessments C+S+ against striatal plaque count by histopathology,STR Plaques Sparse,0
same,BIE assessments C+S− against striatal plaque count by histopathology,STR Plaques Sparse,1
same,BIE assessments C−S− against striatal plaque count by histopathology,STR Plaques Sparse,19
same,Cases categorised C+S+ by BIE majority,Thal (amyloid) Phase 0,0
same,Cases categorised C+S− by BIE majority,Thal (amyloid) Phase 0,0
same,Cases categorised C−S+ by BIE majority,Thal (amyloid) Phase 0,0
same,Cases categorised C−S− by BIE majority,Thal (amyloid) Phase 0,7
same,Cases categorised C+S+ by BIE majority,Thal (amyloid) Phase 1,0
same,Cases categorised C+S− by BIE majority,Thal (amyloid) Phase 1,0
same,Cases categorised C−S+ by BIE majority,Thal (amyloid) Phase 1,0
same,Cases categorised C−S− by BIE majority,Thal (amyloid) Phase 1,10
same,Cases categorised C+S+ by BIE majority,Thal (amyloid) Phase 2,0
same,Cases categorised C+S− by BIE majority,Thal (amyloid) Phase 2,0
same,Cases categorised C−S+ by BIE majority,Thal (amyloid) Phase 2,0
same,Cases categorised C−S− by BIE majority,Thal (amyloid) Phase 2,5
same,Cases categorised C+S+ by BIE majority,Thal (amyloid) Phase 3,3
same,Cases categorised C+S− by BIE majority,Thal (amyloid) Phase 3,4
same,Cases categorised C−S+ by BIE majority,Thal (amyloid) Phase 3,0
same,Cases categorised C−S− by BIE majority,Thal (amyloid) Phase 3,7
same,Cases categorised C+S+ by BIE majority,Thal (amyloid) Phase 4,17
same,Cases categorised C+S− by BIE majority,Thal (amyloid) Phase 4,2
same,Cases categorised C−S+ by BIE majority,Thal (amyloid) Phase 4,0
same,Cases categorised C−S− by BIE majority,Thal (amyloid) Phase 4,5
same,Cases categorised C+S+ by BIE majority,Thal (amyloid) Phase 5,46
same,Cases categorised C+S− by BIE majority,Thal (amyloid) Phase 5,0
same,Cases categorised C−S+ by BIE majority,Thal (amyloid) Phase 5,0
same,Cases categorised C−S− by BIE majority,Thal (amyloid) Phase 5,0

# From patent US20180193490A1, “Beta Amyloid Staging” (GE HEALTHCARE LIMITED, priority 2015, published 2018)
